IC50 data for 39 compounds are collected here from patent EP0233461B2, “4,5,6-Substituted-2-pyrimidinamines” (AMERICAN CYANAMID COMPANY, priority 1986, dated 1987).

The assay deals with human basophils. The experiment in a line: Inhibition of histamine release from immunologically stimulated human basophils. Type of assay: cell-based. As to conditions: concentration causing 50% inhibition of histamine release, by linear regression, active if IC50 ≦ 48 µM. The protocol: The blood is allowed to sediment at room temperature in two 50 ml polycarbonate centrifuge tubes until a sharp interface develops between the red cells and plasma (60-90 minutes). The plasma (top) layer from each tube is withdrawn by pipet and transferred to respective 50 ml polycarbonate tubes. The plasma is centrifuged for 8 minutes at 110X G at 4°C. The supernatant is carefully poured off as completely as possible and the cell button is resuspended in 2-3 ml of Tris-A buffer using a siliconized Pasteur pipet. The resuspension is accomplished by drawing the liquid gently in an out of the pipet, with the tip below the liquid until an even suspension of cells is obtained. Sufficient Tris-A buffer is then added to bring the volume in the tube to about 45 ml and the tube is centrifuged at 110X G for 8 minutes at 4°C. The supernatant is poured off and the cell button is resuspended and centrifuged as described above. The supernatant is poured off and the cell button is suspended in 2-3 ml of Tris-ACM buffer to make the final volume sufficient to allow addition to the reaction tubes. Reaction tubes containing anti-IgE or antigens, either alone or with test compound in a total volume of 0.2 ml are prepared and placed in a 37°C bath. The cells are warmed to 37°C and frequently swirled to ensure an even suspension, while 1.0 ml aliquots are added to each reaction tube. The tubes are then incubated for 60 minutes at 37°C, vortexing the tubes gently every 15 minutes to keep the cells evenly suspended. When the reaction is complete, the tubes are centrifuged at 4°C for 10 minutes at 1500 rpm to sediment the cells. […] Blanks and totals are included in each test. The blanks have cells and all reagents except antigen or anti-IgE. The totals contain 0.24 ml of 8% perchloric acid, one ml of cells and 0.2 ml of buffer. All samples are then centrifuged to remove the precipitate protein. […] The automated system consists of the following Technicon Autoanalyzer II components Sampler IV, Dual-Speed Proportioning Pump III, Fluoronephelometer with a narrow pass primary filter 7-60 and a secondary filter 3-74, Recorder, and Digital Printer. The manifold used is the one described by Siraganian vide supra, with the following modifications: the dialyzer is omitted; all pumping tubes pass through a single proportioning pump with large capacity and twice the volume of sample is taken for anaylsis. The automated chemistry consists of the following steps: Extraction from alkaline saline into butanol, back extraction into dilute hydrochloric acid by addition of heptane, reaction of histamine with o-phthaldialdehyde (OPT) at high pH and conversion of the OPT adduct to a stable fluorophore with phosphoric acid. The reaction product is then passed through the fluorometer. The full scale response is adjusted to 50 ng histamine base with a threshold sensitivity of approximately 0.5 ng. The instrument blank (wash) is substracted from the ng histamine of each sample. Then the ng histamine of each sample is divided by the mean of the three totals (cells lysed with perchloric acid) to obtain percent release. Control samples contain antigen but no test compound. Blank (or spontaneous release) samples contain neither antigen nor test compound. The mean of the blanks (three replicates) is subtracted from the percent release for controls and test compounds.

Where a name gives a salt, the structure may show the parent alone. Read-outs that look alike come from different tables or passages of the source.

As a reminder, the IC50 is the point on the concentration scale where inhibition reaches its midpoint. Turning to `CN(C)c1ccc(Nc2nccc(-c3ccsc3)n2)cc1` [N,N-Dimethyl-N'-[4-(3-thienyl)-2-pyrimidinyl]-1,4-benzenediamine], under “Homo sapiens, read-out: IC50”, the IC50 stood at 2100 nM.

Regarding `CN(C)c1ccc(Nc2nccc(-c3ccccn3)n2)cc1` [N-[4-(Dimethylamino)phenyl]-4-(2-pyridinyl)-2-pyrimidinamine], the IC50 (read-out: IC50) was 2700 nM.

For `Cc1cc(-c2ccncc2)nc(Nc2ccc(N(C)C)cc2)n1` [N,N-Dimethyl-N'-[4-methyl-6-(4-pyridinyl)-2-pyrimidinyl]-1,4-benzenediamine], under “Homo sapiens, read-out: IC50”, the IC50 was 37700 nM.

Regarding `CCN(CC)CCOc1cccc(Nc2nccc(-c3ccco3)n2)c1` [N-[3-[2-(Diethylamino)ethoxy]phen-yl]-4-(2-furanyl)-2-pyrimidinamine], for the setting “Homo sapiens, read-out: IC50”, the IC50 worked out at 1300 nM.

For `CN(C)CCCOc1ccc(Nc2nccc(-c3cccnc3)n2)cc1` [N-[4-[3-(Dimethylamino)propoxy]phenyl]-4-(3-pyridinyl)-2-pyrimidinamine], the IC50 (Homo sapiens, read-out: IC50) worked out at 500 nM.

In the case of `Cc1cc(-c2ccccn2)nc(Nc2ccccc2)n1` [4-Methyl-N-phenyl-6-(2-pyridinyl)-2-pyrimidinamine], the IC50 (Homo sapiens, read-out: IC50) was 26800 nM.

In the case of `CC(=O)N(C)c1ccc(Nc2nccc(-c3ccccn3)n2)cc1` [N-Methyl-N-[4-[[4-(2-pyridinyl)-2-pyrimidinyl]amino]phenyl]acetamide], the IC50 (Homo sapiens, read-out: IC50) was found to be 600 nM.

On to `CCN(CC)c1ccc(Nc2nccc(-c3cc4ccccc4o3)n2)cc1` [N'-[4-(2-Benzofuranyl)-2-pyrimidinyl]-N,N-diethyl-1,4-benzenediamine], for which the IC50 (Homo sapiens, read-out: IC50) came to 6200 nM.

In the case of `CN1CCN(c2ccc(Nc3nccc(-c4ccccn4)n3)cc2)CC1` [N-[4-(4-Methyl-1-piperazinyl)phenyl]-4-(2-pyridinyl)-2-pyrimidinamine], for the setting “Homo sapiens, read-out: IC50”, the IC50 is less than 24000 nM.

As to `CN(C)c1ccc(Nc2nccc(-c3ccncc3)n2)cc1` [N,N-Dimethyl-N'-[4-(4-pyridinyl)-2-pyrimidinyl]-1,4-benzenediamine, trihydrochloride], for the setting “trihydrochloride, read-out: IC50”, the IC50 came out at 400 nM.

For the compound `CCN(CC)CCNC(=O)c1ccc(Nc2nccc(-c3cccnc3)n2)cc1` [N-[2-(Diethylamino)ethyl]-4-[[4-(3-pyridinyl)-2-pyrimidinyl]amino]benzamide], where the note is “Homo sapiens, read-out: IC50”, the IC50 was 800 nM.

For the compound `c1ccc(Nc2nccc(-c3ccncc3)n2)cc1` [N-Phenyl-4-(4-pyridinyl)-2-pyrimidinamine, compound with 2-h] [N-Phenyl-4-(4-pyridinyl)-2-pyrimidinamine, compound with 2-hydroxy-1,2,3-propanetricarboxylate (2:1)], where the note is “read-out: IC50”, the IC50 amounted to 3500 nM.

For the compound `COc1cccc(Nc2nccc(-c3ccc(C)o3)n2)c1` [N-(3-Methoxyphenyl)-4-(5-methyl-2-furanyl)-2-pyrimidinamine], the IC50 (Homo sapiens, read-out: IC50) was found to be 1200 nM.

For the compound `CC(=O)Nc1ccc(Nc2nccc(-c3ccncc3)n2)cc1C` [N-[2-Methyl-4-[[4-(4-pyridinyl)-2-pyrimidinyl]amino]phenyl]acetamide], the IC50 (Homo sapiens, read-out: IC50) was 1200 nM.

`Cc1cc(C)cc(Nc2nccc(-c3ccccn3)n2)c1` [N-(3,5-Dimethylphenyl)-4-(2-pyridinyl)-2-pyrimidinamine, sulfate] showed an IC50 (Homo sapiens) of 600 nM.

Consider `CN(C)c1cccc(Nc2nccc(-c3ccncc3)n2)c1` [N,N-Dimethyl-N'-[4-(4-pyridinyl)-2-pyrimidinyl)]-1,3-benzene] [N,N-Dimethyl-N'-[4-(4-pyridinyl)-2-pyrimidinyl)]-1,3-benzenediamine, sulfate], for which, where the note is “read-out: IC50”, the IC50 worked out at 1000 nM.

For `CNc1ccc(Nc2nccc(-c3cccnc3)n2)cc1` [N-Methyl-N'-[4-(3-pyridinyl)-2-pyrimidinyl]-1,4-benzenediamine], the IC50 (Homo sapiens, read-out: IC50) is 2100 nM.

In the case of `Cc1cc(C)c(Nc2nccc(-c3ccncc3)n2)c(C)c1` [4-(4-Pyridinyl)-N-(2,4,6-trimethylphenyl)-2-pyrimidinamine], the IC50 (Homo sapiens, read-out: IC50) is 10500 nM.

Consider `COc1cccc(Nc2nccc(-c3ccc(C)s3)n2)c1` [N-(3-Methoxyphenyl)-4-(5-methyl-2-thienyl)-2-pyrimidinamine], for which, for the setting “Homo sapiens, read-out: IC50”, the IC50 came out at 2300 nM.

`O=C(O)c1ccc(Nc2nccc(-c3cccnc3)n2)cc1` [4-[[4-(3-Pyridinyl)-2-pyrimidinyl]amino]benzoic acid]: the IC50 (Homo sapiens, read-out: IC50) amounted to 7600 nM.

In the case of `COc1ccc(Nc2nccc(-c3ccsc3)n2)cc1` [N-(4-Methoxyphenyl)-4-(3-thienyl)-2-pyrimidinamine], the IC50 (Homo sapiens, read-out: IC50) came to 15600 nM.

Take `CCc1ccc(Nc2nccc(-c3cc[n+]([O-])cc3)n2)cc1` [N-(4-Ethylphenyl)-4-(4-pyridinyl)-2-pyrimidinamine, pyridine-1-oxide]: where the note is “Homo sapiens, read-out: IC50”, the IC50 came out at 17700 nM.

As for `Cc1cc(C)cc(Nc2nccc(-c3ccncc3)n2)c1` [N-(3,5-Dimethylphenyl)-4-(4-pyridinyl)-2-pyrimidinamine], for the setting “Homo sapiens, read-out: IC50”, the IC50 is 4400 nM.

Turning to `CC(C)N(CCOc1ccc(Nc2nccc(-c3cccnc3)n2)cc1)C(C)C` [N-[4-[2-[bis(1-Methylethyl)amino]ethoxy]phenyl]-4-(3-pyridinyl)-2-pyrimidinamine], the IC50 (Homo sapiens, read-out: IC50) was found to be 4600 nM.

With `Cc1cc(-c2ccnc(Nc3cccc(N(C)C)c3)n2)c(C)o1` [N'-[4-(2,5-Dimethyl-3-furanyl)-2-pyrimidinyl]-N,N-dimethyl-1,3-benzenediamine], the IC50 (Homo sapiens, read-out: IC50) was less than 24000 nM.

For the compound `Fc1ccc(Nc2nccc(-c3cccnc3)n2)cc1` [N-(4-Fluorophenyl)-4-(3-pyridinyl)-2-pyrimidinamine], the IC50 (Homo sapiens, read-out: IC50) was less than 48000 nM.

In the case of `CCOC(=O)C(=O)N(c1ccccc1)c1nccc(-c2ccncc2)n1` [Oxo[phenyl[4-(4-pyridinyl)-2-pyrimidinyl]amino]acetic acid, ethyl ester], the IC50 (Homo sapiens, read-out: IC50) turned out to be 2100 nM.

With `CCc1ccc(Nc2nccc(-c3cnccn3)n2)cc1` [N-(4-Ethylphenyl)-4-pyrazinyl-2-pyrimidinamine], the IC50 (Homo sapiens, read-out: IC50) turned out to be 2800 nM.

Turning to `COc1ccc(Nc2nccc(-c3cccs3)n2)cc1` [N-(4-Methoxyphenyl)-4-(2-thienyl)-2-pyrimidinamine], the 50% inhibitory concentration (IC50) (Homo sapiens, read-out: IC50) came to 3900 nM.

With `CN(C)c1ccc(Nc2nccc(-c3ccco3)n2)cc1` [N'-[4-(2-Furanyl)-2-pyrimidinyl]-N,N-dimethyl-1,4-benzenediamine], under “Homo sapiens, read-out: IC50”, the IC50 was determined as 1900 nM.

As to `Fc1ccc(Nc2nccc(-c3ccncc3)n2)cc1` [N-(4-Fluorophenyl)-4-(4-pyridinyl)-2-pyrimidinamine], the IC50 (Homo sapiens, read-out: IC50) stood at 1900 nM.

As to `CCN(CC)CCOc1cccc(Nc2nccc(-c3cccs3)n2)c1` [N-[3-[2-(Diethylamino)ethoxy]phen-yl]-4-(2-thienyl)-2-pyrimidinamine], the IC50 (Homo sapiens, read-out: IC50) is 600 nM.

In the case of `c1ccc(-c2ccnc(Nc3cccc(-n4ccnc4)c3)n2)nc1` [N-[3-(1H-Imidazol-1-yl)phenyl]-4-(2-pyridinyl)-2-pyrimidinamine], for the setting “Homo sapiens, read-out: IC50”, the IC50 worked out at 100 nM.

Turning to `Nc1cccc(Nc2nccc(-c3cccnc3)n2)c1` [N-[4-(3-Pyridinyl)-2-pyrimidinyl]-1,3-benzenediamine, dihydrochloride], the IC50 (Homo sapiens, read-out: IC50) turned out to be 400 nM.

For `CC(=NNC(N)=O)c1ccc(Nc2nccc(-c3cccnc3)n2)cc1` [2-[1-[4-[[4-(3-Pyridinyl)-2-pyrimidinyl]amino]phenyl]ethylidene]hydrazinecarboxamide], where the note is “Homo sapiens, read-out: IC50”, the IC50 amounted to 8100 nM.

With `C=CCOc1ccc(Nc2nccc(-c3cccnc3)n2)cc1` [N-[4-(2-Propenyloxy)phenyl]-4-(3-pyridinyl)-2-pyrimidinamine], where the note is “Homo sapiens, read-out: IC50”, the IC50 was found to be 800 nM.

`CC(=O)Nc1ccc(Nc2nccc(-c3cccnc3)n2)cc1` [N-[4-[[4-(3-Pyridinyl)-2-pyrimidin-yl]amino]phenyl]acetamide]: the IC50 (Homo sapiens, read-out: IC50) came out at 3600 nM.

With `CN(C)c1cccc(Nc2nccc(-c3ccncc3)n2)c1` [N,N-Dimethyl-N'-[4-(4-pyridinyl)-2-pyrimidin-yl]-1,3-benzenediamine, dihydrochloride], the IC50 (dihydrochloride, read-out: IC50) came out at 500 nM.

With `Cc1cc(-c2ccnc(Nc3ccccc3)n2)c(C)o1` [4-(2,5-Dimethyl-3-furanyl)-N-phenyl-2-pyrimidinamine], under “Homo sapiens, read-out: IC50”, the IC50 was 2000 nM.
